Read-outs that look alike come from different tables or passages of the source. Starred links: 1 amine or outer side, 2 acyl side, 3 side chain; linkers in the order of their positions; H or OH if unused. Positions of bridges follow the written chain, without caps; N, C: chain ends. Non-standard residues stand in square brackets, D forms with d. Residues, ends and D or L forms follow the SMILES beside them. Groups on a side chain read outwards from the residue. *: point of attachment. C18 diacid = O=C(O)CCCCCCCCCCCCCCCCC(=O)*; Dip = N[C@H](C(=O)O)C(c1ccccc1)c1ccccc1; γGlu = O=C(O)[C@H](CCC(=O)[*:2])N[*:1]; NHCH2CHPh2 = c1ccc(C(CN*)c2ccccc2)cc1; Ethylenediamine = C(CN[*:2])N[*:1]; Palmitoyl = CCCCCCCCCCCCCCCC(=O)*; dNMeQ = CN[C@H](CCC(N)=O)C(=O)O; β3hF = N[C@H](CC(=O)O)Cc1ccccc1; NMeK = CN[C@@H](CCCCN)C(=O)O; Pen = CC(C)(S)[C@H](N)C(=O)O; Isovaleryl = CC(C)CC(=O)*; NMeS = CN[C@@H](CO)C(=O)O; dNMeS = CN[C@H](CO)C(=O)O; Dap = NC[C@H](N)C(=O)O; AEEA = NCCOCCOCC(=O)O; Ahx = NCCCCCC(=O)O
Legend:
ferroportin [1] = target: T1, ferroportin (Homo sapiens, UniProt Q9NP59); test: T47D cell-based ferroportin internalization assay in presence of mouse serum albumin (MSA); parameters: a human breast carcinoma adherent cell line which endogenously expresses ferroportin; host or cells: T47D
T1 sequence (Q9NP59 1-571): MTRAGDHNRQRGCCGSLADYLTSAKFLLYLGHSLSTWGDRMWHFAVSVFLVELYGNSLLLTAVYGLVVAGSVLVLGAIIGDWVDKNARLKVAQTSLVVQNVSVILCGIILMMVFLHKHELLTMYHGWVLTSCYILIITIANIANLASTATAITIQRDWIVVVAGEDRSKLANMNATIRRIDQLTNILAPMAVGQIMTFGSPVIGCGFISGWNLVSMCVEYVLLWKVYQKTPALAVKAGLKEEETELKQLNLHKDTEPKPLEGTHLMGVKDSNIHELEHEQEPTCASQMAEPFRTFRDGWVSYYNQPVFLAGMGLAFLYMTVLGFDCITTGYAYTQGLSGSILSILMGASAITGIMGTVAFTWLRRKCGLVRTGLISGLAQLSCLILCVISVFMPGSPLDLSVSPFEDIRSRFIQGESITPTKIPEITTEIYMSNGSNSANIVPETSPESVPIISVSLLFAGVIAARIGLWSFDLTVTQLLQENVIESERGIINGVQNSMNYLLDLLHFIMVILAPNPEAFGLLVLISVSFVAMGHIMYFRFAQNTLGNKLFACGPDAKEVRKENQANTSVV
In short: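 Peptide potency for inducing ferroportin internalization was measured in T47D cells in the presence of serum albumin. Cells grown in RPMI with fetal bovine serum were seeded in 96-well plates at 80-100 k cells per well in 100 ul and rested overnight. Dilution series of test peptides were preincubated 30 min at room temperature, then added to the cells after the medium was aspirated.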

ferroportin [2] = target: T1, ferroportin; test: FPN activity assay: ferroportin-GFP internalization/degradation in HEK293 cells; assay type: cell-based; parameters: expressed in transfected cells; conditions: read-out: FPN IC50
Description: Following internalization, the ferroporin protein is degraded.
A retro inverse peptide is a peptide with a reversed sequence in all D amino acids. An example is that Hy-Glu-Thr-His-NH2 becomes Hy-DHis-DThr-DGlu-NH2. The EC50 of these reference compounds for ferroportin internalization/degradation was determined according to the FPN activity assay described above. These peptides served as control standards.

[3] = Table 6E, T47D internalization assay with MSA
[4] = Table 6E, ferroportin-GFP internalization/degradation, at least 18 hours incubation
[5] = T47D cells, 0.5% mouse serum albumin, 1 hr incubation
[6] = ferroportin-GFP HEK293 cells, at least 18 hours
[7] = T47D internalization assay in presence of mouse serum albumin (MSA), Table 6E
[8] = ferroportin-GFP internalization/degradation, HEK293 cells, Table 6E

CCCCCCCCCCCCCCCC(=O)NCCCCCC(=O)NCCCC[C@@H](C(=O)N[C@H](C(=O)N[C@H](CCCCN)C(N)=O)C(c1ccccc1)c1ccccc1)N(C)C(=O)[C@@H]1CSSC[C@H](NC(=O)[C@@H]2CCCN2C(=O)[C@@H](NC(=O)[C@H](Cc2cnc[nH]2)NC(=O)[C@@H](NC(=O)[C@H](CCC(=O)O)NC(=O)CC(C)C)[C@@H](C)O)C(c2ccccc2)c2ccccc2)C(=O)N1 [compound 196] (Isovaleryl-ETH[Dip]PCC[NMeK]([Ahx-Palmitoyl])[Dip][dK]-NH2; disulfide 6-7)
IC50 (ferroportin [1]; [3]): 1 to 10 nM | DC50 (ferroportin [2]; [4]): 1 to 10 nM

CC[C@H](C)[C@@H]1NC(=O)[C@@H](NC(=O)[C@@H]2CCCN2C(=O)[C@@H](NC(=O)[C@H](Cc2c[nH]cn2)NC(=O)[C@@H](NC(=O)[C@H](CCC(=O)O)NC(=O)CC(C)C)[C@@H](C)O)C(c2ccccc2)c2ccccc2)CSSC[C@@H](C(=O)N[C@H](CC(=O)N[C@@H](CCCCNC(=O)COCCOCCNC(=O)COCCOCCNC(=O)CC[C@H](NC(=O)CCCCCCCCCCCCCCCCC(=O)O)C(=O)O)C(=O)N[C@H](CCCCN)C(N)=O)Cc2ccccc2)NC1=O [Compd 36] (Isovaleryl-ETH[Dip]PCIC[β3hF]K([AEEA-AEEA-γGlu-C18 diacid])[dK]-NH2; disulfide 6-8)
IC50 (ferroportin [1]; [5]): 10 to 100 nM | DC50 (ferroportin [2]; [6]): 10 to 100 nM

CC(C)CC(=O)N[C@@H](CCC(=O)O)C(=O)N[C@H](C(=O)N[C@@H](Cc1c[nH]cn1)C(=O)N[C@H](C(=O)N1CCC[C@H]1C(=O)N[C@H]1CSSC[C@@H](C(=O)N[C@@H](CCCCNC(=O)COCCOCCNC(=O)COCCOCCNC(=O)CC[C@H](NC(=O)CCCCCCCCCCCCCCCCC(=O)O)C(=O)O)C(=O)N[C@H](CC(=O)N[C@H](CCCCN)C(N)=O)Cc2ccccc2)NC1=O)C(c1ccccc1)c1ccccc1)[C@@H](C)O [Compd ID 31, Isovaleric Acid-E-T-H-[Dpa]-P-[Cys]-[Cys]-[Lys(1PEG2_1PEG2_IsoGlu_C18_Diacid)]-[bhPhe]-[(D)Lys]-NH2] (Isovaleryl-ETH[Dip]PCCK([AEEA-AEEA-γGlu-C18 diacid])[β3hF][dK]-NH2; disulfide 6-7)
IC50 (ferroportin [1]; [5]): 10 to 100 nM | DC50 (ferroportin [2]; [6]): 10 to 100 nM

CC(C)CC(=O)N[C@@H](CCC(=O)O)C(=O)N[C@H](C(=O)N[C@@H](Cc1cnc[nH]1)C(=O)N[C@H](C(=O)N1CCC[C@H]1C(=O)N[C@H]1CSSC[C@@H](C(=O)N(C)[C@@H](CCCCNC(=O)COCCOCCNC(=O)COCCOCCNC(=O)[C@H](CN)NC(=O)CCCCCCCCCCCCCCCCC(=O)O)C(=O)N[C@H](CC(=O)N[C@H](CCCCN)C(=O)N(C)[C@H](CO)C(N)=O)Cc2ccccc2)NC1=O)C(c1ccccc1)c1ccccc1)[C@@H](C)O [compound 247] (Isovaleryl-ETH[Dip]PCC[NMeK]([AEEA-AEEA-Dap-C18 diacid])[β3hF][dK][dNMeS]-NH2; disulfide 6-7)
IC50 (ferroportin [1]; [7]): 1 to 10 nM | DC50 (ferroportin [2]; [8]): 10 to 100 nM

CC[C@H](C)[C@@H]1NC(=O)[C@@H](NC(=O)[C@@H]2CCCN2C(=O)[C@@H](NC(=O)[C@H](Cc2c[nH]cn2)NC(=O)[C@@H](NC(=O)[C@H](CCC(=O)O)NC(=O)CC(C)C)[C@@H](C)O)C(c2ccccc2)c2ccccc2)CSSC[C@@H](C(N)=O)NC(=O)C[C@H](Cc2ccccc2)NC(=O)[C@H](CCCCNC(=O)COCCOCCNC(=O)COCCOCCNC(=O)CC[C@H](NC(=O)CCCCCCCCCCCCCCCCC(=O)O)C(=O)O)NC1=O [Compd 32] (Isovaleryl-ETH[Dip]PCIK([AEEA-AEEA-γGlu-C18 diacid])[β3hF]C-NH2; disulfide 6-10)
IC50 (ferroportin [1]; [5]): 100 to 500 nM | DC50 (ferroportin [2]; [6]): 10 to 100 nM

CC(C)CC(=O)N[C@@H](CCC(=O)O)C(=O)N[C@H](C(=O)N[C@@H](Cc1c[nH]cn1)C(=O)N[C@H](C(=O)N1CCC[C@H]1C(=O)N[C@H]1CSSC[C@@H](C(=O)N(C)[C@@H](CCCCNC(=O)COCCOCCNC(=O)COCCOCCNC(=O)[C@H](CN)NC(=O)CCCCCCCCCCCCCCCCC(=O)O)C(=O)N[C@H](CC(=O)N[C@H](CCCCN)C(=O)N(C)[C@H](CCC(N)=O)C(N)=O)Cc2ccccc2)NC1=O)C(c1ccccc1)c1ccccc1)[C@@H](C)O [compound 248] (Isovaleryl-ETH[Dip]PCC[NMeK]([AEEA-AEEA-Dap-C18 diacid])[β3hF][dK][dNMeQ]-NH2; disulfide 6-7)
IC50 (ferroportin [1]; [7]): 10 to 100 nM | DC50 (ferroportin [2]; [8]): 10 to 100 nM

CC[C@H](C)[C@@H]1NC(=O)[C@@H](NC(=O)[C@@H]2CCCN2C(=O)[C@H](Cc2ccccc2)NC(=O)[C@H](Cc2c[nH]cn2)NC(=O)[C@@H](NC(=O)[C@H](CCC(=O)O)NC(=O)CC(C)C)[C@@H](C)O)C(C)(C)SSC(C)(C)[C@@H](C(=O)N[C@@H](CCCCN)C(N)=O)NC(=O)CNC(=O)[C@H](CCCCN)NC(=O)[C@H](CO)NC(=O)[C@H](CCCNC(=N)N)NC(=O)[C@@H]2CCCN2C(=O)[C@H](CCC(=O)O)NC(=O)[C@H](Cc2ccccc2)NC(=O)[C@H](CCCCNC(=O)COCCOCCNC(=O)COCCOCCNC(=O)CC[C@H](NC(=O)CCCCCCCCCCCCCCCCC(=O)O)C(=O)O)NC1=O [Compd 18] (Isovaleryl-ETHFP[Pen]IK([AEEA-AEEA-γGlu-C18 diacid])FEPRSKG[Pen]K-NH2; disulfide 6-16)
IC50 (ferroportin [1]; [5]): > 500 nM | DC50 (ferroportin [2]; [6]): > 500 nM

CCCCCCCCCCCCCCCC(=O)NCCCCCC(=O)NCCCC[C@H]1C(=O)N[C@@H](C(c2ccccc2)c2ccccc2)C(=O)NCCNC(=O)CC[C@H](NC(=O)CC(C)C)C(=O)N[C@@H]([C@@H](C)O)C(=O)N[C@@H](Cc2c[nH]cn2)C(=O)N[C@@H](C(c2ccccc2)c2ccccc2)C(=O)N2CCC[C@H]2C(=O)N[C@H]2CSSC[C@H](NC2=O)C(=O)N1C [compound 161] (Isovaleryl-ETH[Dip]PCC[NMeK]([Ahx-Palmitoyl])[Dip]; linker 1-C via Ethylenediamine; disulfide 6-7)
IC50 (ferroportin [1]; [3]): 10 to 100 nM | DC50 (ferroportin [2]; [4]): 1 to 10 nM

CCCCCCCCCCCCCCCC(=O)NCCCCCC(=O)NCCCC[C@@H](C(=O)NCC(c1ccccc1)c1ccccc1)N(C)C(=O)[C@@H]1CSSC[C@H](NC(=O)[C@@H]2CCCN2C(=O)[C@@H](NC(=O)[C@H](Cc2cnc[nH]2)NC(=O)[C@@H](NC(=O)[C@H](CCC(=O)O)NC(=O)CC(C)C)[C@@H](C)O)C(c2ccccc2)c2ccccc2)C(=O)N1 [compound 163] (Isovaleryl-ETH[Dip]PCC[NMeK]([Ahx-Palmitoyl])-NHCH2CHPh2; disulfide 6-7)
IC50 (ferroportin [1]; [3]): 1 to 10 nM | DC50 (ferroportin [2]; [4]): 10 to 100 nM

COC(=O)CC[C@H](NC(=O)CC(C)C)C(=O)N[C@H](C(=O)N[C@@H](Cc1c[nH]cn1)C(=O)N[C@H](C(=O)N1CCC[C@H]1C(=O)N[C@H]1CSSC[C@@H](C(=O)N(C)[C@@H](CCCCNC(=O)[C@H](CN)NC(=O)CCCCCCCCCCCCCCCCC(=O)O)C(=O)N[C@H](C(=O)N[C@H](CCCCN)C(N)=O)C(c2ccccc2)c2ccccc2)NC1=O)C(c1ccccc1)c1ccccc1)[C@@H](C)O [compound 206] (Isovaleryl-E(OMe)TH[Dip]PCC[NMeK]([Dap-C18 diacid])[Dip][dK]-NH2; disulfide 6-7)
IC50 (ferroportin [1]; [3]): 10 to 100 nM | DC50 (ferroportin [2]; [4]): 10 to 100 nM

CC(C)CC(=O)N[C@@H](CCC(=O)O)C(=O)N[C@H](C(=O)N[C@@H](Cc1c[nH]cn1)C(=O)N[C@H](C(=O)N1CCC[C@H]1C(=O)N[C@H]1CSSC[C@@H](C(=O)N(C)[C@@H](CCCCNC(=O)COCCOCCNC(=O)COCCOCCNC(=O)[C@H](CN)NC(=O)CCCCCCCCCCCCCCCCC(=O)O)C(=O)N[C@H](CC(=O)N[C@H](CCCCN)C(=O)N(C)[C@@H](CO)C(N)=O)Cc2ccccc2)NC1=O)C(c1ccccc1)c1ccccc1)[C@@H](C)O [compound 260] (Isovaleryl-ETH[Dip]PCC[NMeK]([AEEA-AEEA-Dap-C18 diacid])[β3hF][dK][NMeS]-NH2; disulfide 6-7)
IC50 (ferroportin [1]; [7]): 10 to 100 nM | DC50 (ferroportin [2]; [8]): 10 to 100 nM

COC(=O)CC[C@H](NC(=O)CC(C)C)C(=O)N[C@H](C(=O)N[C@@H](Cc1c[nH]cn1)C(=O)N[C@H](C(=O)N1CCC[C@H]1C(=O)N[C@H]1CSSC[C@@H](C(=O)N(C)[C@@H](CCCCNC(=O)CCCCCNC(=O)[C@H](CN)NC(=O)CCCCCCCCCCCCCCCCC(=O)O)C(=O)N[C@H](C(=O)N[C@H](CCCCN)C(N)=O)C(c2ccccc2)c2ccccc2)NC1=O)C(c1ccccc1)c1ccccc1)[C@@H](C)O [compound 207] (Isovaleryl-E(OMe)TH[Dip]PCC[NMeK]([Ahx-Dap-C18 diacid])[Dip][dK]-NH2; disulfide 6-7)
IC50 (ferroportin [1]; [3]): 10 to 100 nM | DC50 (ferroportin [2]; [4]): 1 to 10 nM

Reference: patent US20250277012A1 (Protagonist Therapeutics, Inc., priority 2021, published 2025)
